In brackets after ≈: the same amount, converted by molar mass.
Assays:
Assay type in all cases: physicochemical
[1] = True density of Solid Form A
[2] = Gravimetric analysis (TGA/EGA) of Solid Form A; conditions: heated at 10° C./minute
Method: 10.9587 mg of Solid Form A was placed in a platinum crucible. This was analysed on a TA Instruments Discovery ThermoGravimetric Analyser, using a method that heated the sample from 25° C. to 300° C. at 10° C./minute with a nitrogen purge gas; alternatively, approximately 5-10 mg of material was weighed into an open aluminum pan and loaded into a simultaneous thermogravimetric/differential thermal analyzer (TG/DTA) and held at room temperature. The sample was then heated at a rate of 10° C./min from 20° C. to 400° C. during which time the change in sample weight was recorded along with any differential thermal events (DTA). Nitrogen was used as the purge gas, at a flow rate of 300 cm^3/min.

[3] = Water sorption (dynamic vapor sorption) of Solid Form A; conditions: 25° C.
Method: Solid Form A is non-hygroscopic, absorbing less than 0.05% water at 90% RH, 25° C. See FIG. 7 for the isotherm plot.

[4] = Aqueous solubility of Solid Form A in biologically relevant pH conditions at 25° C.; conditions: thermodynamic from solid
[5] = Solubility of Solid Form A and amorphous Compound X in various solvents at room temperature
[6] = Organic solubility: gravimetric (TGA) solubility at 25° C.
[7] = Particle size of batches of Solid Form A
Source text: Primary particles from below 100 μm to around 500 μm in size, with soft agglomerates up to several millimeters, were observed. The D[4,3] of this material was 195 μm. This material was subsequently milled, to give far fewer large particles and an overall much smaller average primary particle size, giving a D[4,3] of 49.5 μm. See Table 8 for a comparison of particle size properties of various batches.

[8] = Chemical and physical stability of Solid Form A (real-time and accelerated storage); conditions: for Time through which chemically and physically stable: unmilled, bulk packaging
[9] = Physical stability of Solid Form A to milling
Method: Samples of Solid Form A were milled to reduce particle size.
Milled samples of Solid Form A were remilled, and exposed at 40° C./75% RH.

[10] = milled samples remilled, exposed at 40° C./75% RH

With `C[C@@H]1CN(Cc2ncccn2)C[C@H]1c1nc2c(cnn2C2CCOCC2)c(=O)[nH]1` [Solid Form A, 6-((3S,4S)-4-methyl-1-(pyrimidin-2-ylmethyl)pyrrolidin-3-yl)-1-(tetrahydro-2H-pyran-4-yl)-1,5-dihydro-4H-pyrazolo[3,4-d]pyrimidin-4-one] the “True Density (crystal structure)” value ([1]; from crystal structure) was 1.279 Mg/m^3, the “True Density (measured)” value ([1]; measured) was 1.29 Mg/m^3 and the “Temperature until which no significant degradation is seen (TGA)” value [2] was “degradation until approximately 240 °C See FIG. 3”. The “Water Content, Desorption” value ([3]; 0 % RH) was 0 % w/w, the “Water Content, Sorption” value ([3]; 0 % RH) was 0 % w/w and the “Water Content, Desorption” value ([3]; 10 % RH) was 0.01 % w/w. For the same compound, the “Water Content, Sorption” value ([3]; 10 % RH) was 0.01 % w/w, the “Water Content, Desorption” value ([3]; 20 % RH) was 0.01 % w/w and the “Water Content, Sorption” value ([3]; 20 % RH) was 0.01 % w/w. The Hygroscopicity [3] was “non-hygroscopic”, the “Water Content, Desorption” value ([3]; 30 % RH) was 0.01 % w/w and the “Water Content, Sorption” value ([3]; 30 % RH) was 0.01 % w/w. The “Water Content, Desorption” value ([3]; 40 % RH) was 0.02 % w/w, the “Water Content, Sorption” value ([3]; 40 % RH) was 0.02 % w/w and the “Water Content, Desorption” value ([3]; 50 % RH) was 0.02 % w/w. The “Water Content, Sorption” value ([3]; 50 % RH) was 0.02 % w/w, the “Water Content, Desorption” value ([3]; 60 % RH) was 0.02 % w/w and the “Water Content, Sorption” value ([3]; 60 % RH) was 0.02 % w/w. The “Water Content, Desorption” value ([3]; 70 % RH) was 0.03 % w/w, the “Water Content, Sorption” value ([3]; 70 % RH) was 0.03 % w/w and the “Water Content, Desorption” value ([3]; 80 % RH) was 0.03 % w/w. For the same compound, the “Water Content, Sorption” value ([3]; 80 % RH) was 0.03 % w/w, the Water absorbed ([3]; 90% RH) was “less than 0.05%” and the solubility ([4]; aqueous buffer, 100 mM Citrate buffer, pH 4.5, 25° C.) was > 55.9 mg/mL. For the same compound, the solubility ([4]; aqueous buffer, 100 mM Citrate buffer, pH 6.0, 25° C.) was > 52.2 mg/mL, the solubility ([4]; aqueous buffer, 100 mM Phosphate buffer, pH 6.5, 25° C.) was > 53.3 mg/mL and the solubility ([4]; aqueous buffer, 100 mM Succinate buffer, pH 4.0, 25° C.) was > 58.6 mg/mL. For the same compound, the solubility ([4]; aqueous buffer, 100 mM Succinate buffer, pH 5.5, 25° C.) was > 52.8 mg/mL, the solubility ([4]; aqueous buffer, Phosphate buffered saline, pH 7.0, 25° C.) was 42.1 mg/mL (≈ 106 mM) and the solubility ([4]; aqueous buffer, Phosphate buffered saline, pH 7.4, 25° C.) was 27.6 mg/mL (≈ 69.8 mM). For the same compound, the solubility ([4]; simulated gastric fluid, 0.01M HCl, pH 1.7, 25° C.) was > 56.6 mg/mL, the “Solubility (mg/ml)” value ([5]; 1,2-Xylene) was >65.4 mg/mL and the “Solubility (mmol)” value ([5]; 1,2-Xylene) was >165 mmol. For the same compound, the “Solubility (mg/ml)” value ([5]; Acetone) was 49.4 mg/mL (≈ 125 mM), the “Solubility (mmol)” value ([5]; Acetone) was 125 mmol and the “Solubility (mmol)” value ([5]; Chloroform) was >145 mmol. The “Solubility (mmol)” value ([5]; Dioxane) was >117 mmol, the “Solubility (mg/ml)” value ([5]; EtOAc) was 44.7 mg/mL (≈ 113 mM) and the “Solubility (mmol)” value ([5]; EtOAc) was 113 mmol. The “Solubility (mmol)” value ([5]; EtOH) was 160 mmol, the “Solubility (mmol)” value ([5]; Glyme (1,2-Dimethoxyethane)) was >159 mmol and the “Solubility (mmol)” value ([5]; H2O (Water)) was 89 mmol. The “Solubility (mmol)” value ([5]; H2O-EtOH (Water/EtOH)) was >75 mmol, the “Solubility (mg/ml)” value ([5]; H2O-MeCN (Water/MeCN)) was >27 mg/mL and the “Solubility (mmol)” value ([5]; H2O-MeCN (Water/MeCN)) was >68 mmol. For the same compound, the “Solubility (mmol)” value ([5]; H2O-MeOH (Water/MeOH)) was >87 mmol, the “Solubility (mg/ml)” value ([5]; H2O-acetone (Water/acetone)) was >33.3 mg/mL and the “Solubility (mmol)” value ([5]; H2O-acetone (Water/acetone)) was >84 mmol. The “Solubility (mmol)” value ([5]; Heptane) was 1 mmol, the “Solubility (mg/ml)” value ([5]; IPA) was 29.2 mg/mL (≈ 73.8 mM) and the “Solubility (mmol)” value ([5]; IPA) was 74 mmol. For the same compound, the “Solubility (mmol)” value ([5]; MTBE) was 17 mmol, the solubility ([5]; MTBE, organic solvent or mixture) was 6.7 mg/mL (≈ 16.9 mM) and the “Solubility (mg/ml)” value ([5]; MeCN) was 47.8 mg/mL (≈ 121 mM). For the same compound, the “Solubility (mmol)” value ([5]; MeCN) was 121 mmol, the “Solubility (mmol)” value ([5]; MeOH) was >181 mmol and the “Solubility (mmol)” value ([5]; Methoxy ethanol) was >188 mmol. For the same compound, the “Solubility (mmol)” value ([5]; Nitromethane) was >189 mmol, the “Solubility (mmol)” value ([5]; THF) was >147 mmol and the solubility ([5]; THF, organic solvent or mixture) was > 58 mg/mL. For the same compound, the “Solubility (mg/ml)” value ([5]; Toluene) was 52.2 mg/mL (≈ 132 mM), the “Solubility (mmol)” value ([5]; Toluene) was 132 mmol and the solubility ([5]; chloroform, organic solvent or mixture) was > 57.5 mg/mL. The solubility ([5]; dioxane, organic solvent or mixture) was > 46.3 mg/mL, the solubility ([5]; ethanol (EtOH), organic solvent or mixture, EtOH) was 63.4 mg/mL (≈ 160 mM) and the solubility ([5]; glyme (1,2-dimethoxyethane), organic solvent or mixture) was > 63 mg/mL. For the same compound, the solubility ([5]; heptane, organic solvent or mixture) was 0.6 mg/mL (≈ 1.52 mM), the solubility ([5]; methanol (MeOH), organic solvent or mixture, MeOH) was > 71.4 mg/mL and the solubility ([5]; methoxy ethanol, organic solvent or mixture) was > 74.5 mg/mL. The solubility ([5]; nitromethane, organic solvent or mixture) was > 74.9 mg/mL, the solubility ([5]; water, H2O (Water)) was 35.3 mg/mL (≈ 89.3 mM) and the solubility ([5]; water/EtOH, aqueous with cosolvent or surfactant or cyclodextrin, H2O-EtOH (Water/EtOH)) was > 29.8 mg/mL. The solubility ([5]; water/MeOH, aqueous with cosolvent or surfactant or cyclodextrin, H2O-MeOH (Water/MeOH)) was > 34.2 mg/mL, the solubility ([6]; Acetone) was 125 mmol and the solubility ([6]; EtOAc) was 113 mmol. It also gave a solubility ([6]; EtOH) of 160 mmol, a solubility ([6]; H2O) of 89 mmol and a solubility ([6]; Heptane) of 1 mmol. The solubility ([6]; IPA) was 74 mmol, the solubility ([6]; MTBE) was 17 mmol and the solubility ([6]; MeCN) was 121 mmol. It also gave a solubility ([6]; Toluene) of 132 mmol, a solubility ([6]; ethanol (EtOH), organic solvent or mixture, thermodynamic from solid, EtOH, read-out: Solubility) of 63.4 mg/mL (≈ 160 mM) and a solubility ([6]; ethyl acetate (EtOAc), organic solvent or mixture, thermodynamic from solid, EtOAc, read-out: Solubility) of 44.7 mg/mL (≈ 113 mM). It also gave a solubility ([6]; organic solvent or mixture, thermodynamic from solid, Acetone, read-out: Solubility) of 49.4 mg/mL (≈ 125 mM), a solubility ([6]; organic solvent or mixture, thermodynamic from solid, Heptane, read-out: Solubility) of 0.6 mg/mL (≈ 1.52 mM) and a solubility ([6]; organic solvent or mixture, thermodynamic from solid, IPA, read-out: Solubility) of 29.2 mg/mL (≈ 73.8 mM). For the same compound, the solubility ([6]; organic solvent or mixture, thermodynamic from solid, MTBE, read-out: Solubility) was 6.7 mg/mL (≈ 16.9 mM), the solubility ([6]; organic solvent or mixture, thermodynamic from solid, MeCN, read-out: Solubility) was 47.8 mg/mL (≈ 121 mM) and the solubility ([6]; organic solvent or mixture, thermodynamic from solid, Toluene, read-out: Solubility) was 52.2 mg/mL (≈ 132 mM). For the same compound, the solubility ([6]; water, thermodynamic from solid, H2O, read-out: Solubility) was 35.3 mg/mL (≈ 89.3 mM), the “Particle size D[4, 3]” value ([7]; after milling) was 49.5 μm and the “Particle size D[4, 3]” value ([7]; unmilled material) was 195 μm. For the same compound, the Stability on storage ([8]; milled, 70° C./75% RH, 1 week) was “no change in stability”, the “Time through which chemically and physically stable” value ([8]; 40° C./75% RH accelerated conditions) was ≥ 6 months and the “Time through which chemically and physically stable” value ([8]; room temperature conditions (63 months @ 15-30° C. and 21 months at 25° C./60% RH)) was ≥ 84 months. For the same compound, the “Change in crystallinity (XRPD)” value [9, 10] was “no sign of a decrease in crystallinity”, the “Form change (XRPD)” value [9, 10] was “no sign of form change” and the “Impact of milling upon polymorphic form” value ([9]; milled to reduce particle size) was “No impact upon polymorphic form”.
